The nature of assay [1]: Synergistic phototoxicity-reducing action of combinations (method not described).
Assay [2] relates to IL-1α production in HPV16 immobilized human adult keratinocytes (KERTr). As to the kind of experiment: IL-1α production in ketoprofen-treated, UVA-irradiated keratinocytes (ELISA). Format: cell-based. To be noted: 75 μM ketoprofen, 6-8 J/cm^2 UVA, 24 hours after irradiation. The method, then: After adding a mixed solution of 75 μM ketoprofen and different concentrations of propyl gallate to a culturing medium (EpiLife™ Serum Free Medium E0151) (Cascade Biologics, Inc.) containing HPV16 immobilized human adult keratinocytes (KERTr) KUK001 (ATCC Co., Rockville, Md.), the mixture was incubated for 2 hours at […] in 5% carbon dioxide/95% air, and then irradiated with 6-8 J/cm^2 UVA. When 24 hours had passed after UVA irradiation, the IL-1α concentration of the culture supernatant was evaluated with an ELISA kit (R&D Systems, Inc.). As a control, there was used the above-mentioned culturing medium to which a solution of 75 μM ketoprofen alone was added, which was incubated for 2 hours at 37° C. in 5% carbon dioxide/95% air, and which was not irradiated with UVA.
An experiment was conducted in the same manner as Example 6 using di-tert-butylhydroxytoluene (BHT) instead of propyl gallate.
(In general: ELISA stands for enzyme-linked immunosorbent assay.)

The test system of assay [3] is heparin-added rabbit venous blood (whole blood). As to the kind of experiment: In vitro phototoxicity test (ketoprofen-associated photohemolysis). Format: cell-based. To be noted: Oryctolagus cuniculus, light or radiation study, with ketoprofen, 7.5 J/cm^2 UVA. The method, then:
The following experiment was conducted according to “Guidelines for basic biological tests of medical materials and devices”, Part VII “Hemolysis Test”. First, each of the test substances listed in Table I (Example 1), Table 2 (Example 2) and Table 3 (Example 3) {tert-butylhydroxyanisole (BHA), di-tert-butylhydroxytoluene (BHT), thymol, propyl gallate} and ketoprofen were dissolved in N,N-dimethylformamide (DMF) to 20-fold compared to the concentration shown in the tables (1000 μg/mL of ketoprofen). Also, after further diluting these solutions 5-fold in phosphate buffered saline (PBS), equal amounts of each test substance solution and the ketoprofen solution were combined. As a control, ketoprofen alone was dissolved in DMF to […], and diluted 10-fold with PBS to prepare a solution. These solutions were dispensed in 1 mL portions into a 24-well multiwell plate, and then 1 mL of PBS containing 40 μL of heparin-added rabbit venous blood (whole blood) per 5 mL was added to each to prepare reaction solutions.
An ultraviolet irradiating apparatus (UVP Lamp Fixture, UVP) equipped with two ultraviolet lamps (FL15BLB, Sankyo Denki) was used to irradiate the reaction solutions with 7.5 J/cm^2 UVA (ultraviolet rays of wavelength 320-400 nm) in an incubator set to 37° C., with the cover removed from the plate containing the reaction solutions (UVA is associated with drug-induced photosensitivity). During the ultraviolet irradiation, a 3 mm-thick glass plate was placed between the light source and the reaction solutions to cut ultraviolet rays of 320 nm wavelength and shorter. The incubation time was 60 minutes, including the irradiation time. After completion of the reaction, the solutions were centrifuged, the obtained 100 μL of supernatant (N=3) was transferred to a 96-well assay plate and the absorbance at 540 nm (Abs540) was measured as an index of hemolysis. The effects of each of the test substances in Tables 1 to 3 on ketoprofen-associated photohemolysis were evaluated as the hemolysis inhibition (%) with respect to the control group, calculated using Abs540.

The subject of assay [4] is auricle of a Balb/c mouse. Kind of assay: In vivo photosensitivity test (ketoprofen-induced ear thickness increase after UVA). To be noted: 20 μL on auricle, 40 J/cm^2 UVA, 24 hours. The method, then: The following experiment was conducted with reference to the method of Gerberick et al. (Food Chem. Toxicol., 27, 813-819(1989)) with some modifications. First, ethanol was used to prepare a mixed solution containing the test substances shown in Tables 4 and 5 {tert-butylhydroxyanisole (BHA), di-tert-butylhydroxytoluene […], propyl gallate} and 2% ketoprofen. As a control a 2% ketoprofen solution was prepared using ethanol. Next, 20 μL of each prepared solution (N=8) was applied onto the auricle of a Balb/c mouse (female, 9-11 weeks old), prior to irradiation with 40 J/cm^2 UVA. When 24 hours had passed after UVA irradiation, the ear thickness of the mouse was measured and the increase with respect to the initial ear thickness was calculated. […] The abbreviation “PG” in the tables stands for “propyl gallate”.

In the case of `CCCCCCCCC(=O)NCc1ccc(O)c(OC)c1` [nonylic vanillylamide], the “synergistic effect on the phototoxicity-reducing action” value in assay [1] is listed as “No such synergistic effect is observed”.
As for `CCCOC(=O)c1cc(O)c(O)c(O)c1` [Propyl gallate, propyl gallate], the “IL-1α production (IL-1α concentration in the culture supernatant)” value in assay [2] is “IL-1α production is inhibited”. Moreover, the hemolysis inhibition at 0.5 µg/mL is 25.5% in assay [3] (Table 1: propyl gallate 0.5 μg/mL, BHA 0); 3.6% in assay [3] (Table 2: propyl gallate 0.5 μg/mL, BHT 0); 2.1% in assay [3] (Table 3: propyl gallate 0.5 μg/mL, thymol 0). For the same compound, the hemolysis inhibition at 1 µg/mL in assay [3] (Table 1: propyl gallate 1 μg/mL, BHA 0) worked out at 66%; in assay [3] (Table 2: propyl gallate 1 μg/mL, BHT 0) it was 45.4%; in assay [3] (Table 3: propyl gallate 1 μg/mL, thymol 0), 63.8%. Moreover, the hemolysis inhibition at 2 µg/mL amounted to 88.9% in assay [3] (Table 1: propyl gallate 2 μg/mL, BHA 0); 91.2% in assay [3] (Table 2: propyl gallate 2 μg/mL, BHT 0); 88% in assay [3] (Table 3: propyl gallate 2 μg/mL, thymol 0). The “Auricular edema inhibition (%)” value in assay [4] (Table 4: 0.2% PG with 2% ketoprofen in ethanol) is reported as 21%; in assay [4] (Table 5: 0.2% PG with 2% ketoprofen in ethanol) it was 19%.
With `Cc1ccc(C(C)C)c(O)c1` [Thymol, 6-isopropyl-m-cresol], in assay [3] (thymol 0.5 μg/mL, propyl gallate 0), the hemolysis inhibition at 0.5 µg/mL amounted to 10.8%. Moreover, in assay [3] (thymol 1 μg/mL, propyl gallate 0), the hemolysis inhibition at 1 µg/mL was 41.1%. The hemolysis inhibition at 2 µg/mL in assay [3] (thymol 2 μg/mL, propyl gallate 0) was 70.7%.
On to `COc1ccc(O)cc1C(C)(C)C` [BHA, 2-tert-butyl-4-oxyanisole], for which, in assay [4] (0.5% BHA with 2% ketoprofen in ethanol), the “Auricular edema inhibition (%)” value came out at 24%.
`Cc1cc(C(C)(C)C)c(O)c(C(C)(C)C)c1` [BHT, 2,6-di-tert-butyl-p-cresol]: the “IL-1α production (IL-1α concentration in the culture supernatant)” value in assay [2] was “IL-1α production is inhibited”. Further, in assay [3] (BHT 0.125 μg/mL, propyl gallate 0), the hemolysis inhibition at 0.125 µg/mL is -3.7%. The hemolysis inhibition at 0.25 µg/mL in assay [3] (BHT 0.25 μg/mL, propyl gallate 0) amounted to 9.6%. In addition, the hemolysis inhibition at 0.5 µg/mL in assay [3] (BHT 0.5 μg/mL, propyl gallate 0) turned out to be 49.6%. In assay [3] (BHT 1 μg/mL, propyl gallate 0), the hemolysis inhibition at 1 µg/mL turned out to be 88.9%. The “Auricular edema inhibition (%)” value in assay [4] (1.0% BHT with 2% ketoprofen in ethanol) was found to be 16%.

The record behind these values is patent publication US20060188557A1, “Prepartaion for external percutaneous administration containing non-steroidal anti-inflammatory drug and interleukin-1 alpha production inhibitor” (Hisamitsu Pharmaceutical Co., Inc., priority 2003, published 2006).
